Measured values as given in US6618679B2, “Methods for analysis of gene expression” (priority 2000, dated 2003).

Tested on: Hep G2 (human hepatocellular carcinoma)
Experiment: Non-lethal concentration range for chemical exposure of Hep G2 cells
Format: cell-based
Experimental: The hepatocyte cell line, Hep G2 (human hepatocellular carcinoma, obtained from the American Type Culture Collection, Rockville Md., ATCC#HB-8065), was used to evaluate the effects of various chemicals on expression of a set of genes known to be involved in cellular toxicological responses. The cells were routinely maintained in T75 flasks in Eagle's MEM medium (with non-essential amino acids, sodium pyruvate, and Earle's salts) and 10% fetal bovine serum at 37° C. in a humidified atmosphere of 5% CO2. The chemicals used in exposure experiments included cadmium chloride (CdCl2) and methyl methane sulfonate (MMS). CdCl2 is a strong inducer of metallothionein, a metal-binding protein, and is known to be carcinogenic and capable of interfering with DNA repair. MMS is an alkylating agent that induces DNA damage. Dilutions of these compounds were prepared from concentrated stocks obtained from Aldrich Chemical Company (Milwaukee, Wis.). Water was used as the solvent control in dosing studies. […] These concentration ranges were empirically determined to not be lethal to cells for the duration of the exposure period. […] Cell number was quantitated using a dye incorporation assay, CyQUANT from Molecular Probes (Eugene, Oreg.).

| SMILES | lethality to cells for the duration of the exposure period (final concentrations 10^-4M to 10^-6M CdCl2, 3 hours exposure) | lethality to cells for the duration of the exposure period (final concentrations 0.5 mM to 2 mM MMS, 3 hours exposure) |
| --- | --- | --- |
| [Cl][Cd][Cl] [CdCl2, cadmium chloride] | not be lethal | – |
| COS(C)(=O)=O [MMS, methyl methane sulfonate] | – | not be lethal |
